Calls of active or inactive are those of the source.

The target in assay [1] is G-protein coupled receptor 55 (Homo sapiens, UniProt Q9Y2T6). The experiment in a line: inhibition of LPI-stimulated GPR55 beta-arrestin translocation – imaging, U2OS, beta-arrestin-GFP, LPI agonist, primary screen (AID 2013).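 Note: antagonist potency measured as reduced agonist-driven arrestin aggregation.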 In kind it is functional.
The target in the next assay is T1, Protein RecA (Mycobacterium tuberculosis, UniProt P9WHJ3).
T1 sequence (P9WHJ3 whole entry): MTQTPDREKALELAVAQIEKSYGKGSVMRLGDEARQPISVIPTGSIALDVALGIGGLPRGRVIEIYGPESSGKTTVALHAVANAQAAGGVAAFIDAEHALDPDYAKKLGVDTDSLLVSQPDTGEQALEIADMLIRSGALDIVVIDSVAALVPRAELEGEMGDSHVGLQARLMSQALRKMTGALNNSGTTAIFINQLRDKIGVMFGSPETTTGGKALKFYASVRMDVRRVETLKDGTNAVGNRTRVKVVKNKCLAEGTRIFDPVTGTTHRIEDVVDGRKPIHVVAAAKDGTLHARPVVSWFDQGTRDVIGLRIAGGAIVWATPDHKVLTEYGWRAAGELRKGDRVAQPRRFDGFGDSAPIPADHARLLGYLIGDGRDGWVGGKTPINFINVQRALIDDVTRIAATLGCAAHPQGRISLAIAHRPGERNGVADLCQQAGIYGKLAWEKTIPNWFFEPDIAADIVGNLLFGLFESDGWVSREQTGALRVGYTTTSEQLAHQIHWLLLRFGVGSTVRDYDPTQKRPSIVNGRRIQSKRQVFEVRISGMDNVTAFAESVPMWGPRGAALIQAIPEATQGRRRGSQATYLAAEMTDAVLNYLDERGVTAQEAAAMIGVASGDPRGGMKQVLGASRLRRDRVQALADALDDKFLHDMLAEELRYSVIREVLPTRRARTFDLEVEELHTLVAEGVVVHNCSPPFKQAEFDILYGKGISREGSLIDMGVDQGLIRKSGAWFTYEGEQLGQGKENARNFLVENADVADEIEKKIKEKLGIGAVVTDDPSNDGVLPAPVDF
Nature of the assay: Fluorescence Cell-Free Homogeneous Dose Retest to Identify Inhibitors of RecA-Intein Splicing Activity. [Related pubchem assays (depositor defined):AID2097, AID2223, AID489010, AID492950]. In kind it is functional.

Assay [2] concerns the target T2, Heat shock factor protein 1 (Mus musculus, UniProt P38532).
T2 sequence (P38532 whole entry): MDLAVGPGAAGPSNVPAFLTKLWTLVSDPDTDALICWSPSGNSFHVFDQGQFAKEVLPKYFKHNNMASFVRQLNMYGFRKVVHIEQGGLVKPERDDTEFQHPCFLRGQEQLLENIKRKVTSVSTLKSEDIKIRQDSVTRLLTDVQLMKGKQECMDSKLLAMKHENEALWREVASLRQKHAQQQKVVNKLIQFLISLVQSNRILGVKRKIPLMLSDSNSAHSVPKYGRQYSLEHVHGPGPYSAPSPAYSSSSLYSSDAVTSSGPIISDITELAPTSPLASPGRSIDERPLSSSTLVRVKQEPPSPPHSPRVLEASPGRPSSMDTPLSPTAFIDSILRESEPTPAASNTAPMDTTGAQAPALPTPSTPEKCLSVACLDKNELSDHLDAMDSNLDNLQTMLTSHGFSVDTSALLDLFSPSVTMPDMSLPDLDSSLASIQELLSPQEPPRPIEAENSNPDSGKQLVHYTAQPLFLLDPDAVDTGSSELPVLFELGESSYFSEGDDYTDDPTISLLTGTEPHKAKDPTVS
Nature of the assay: enhancement of HSF1-driven luciferase signal – cell-based, NIH3T3, luminescence, dose retest, confirmation (AID 435004).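 Note: stress induced by proteasome inhibitor MG132 added 30 min after compound; luciferase reporter driven by HSF1 response element in NIH3T3 cells; actives raise luminescence as potentiators of the MG132 stress response.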 It is filed as functional.

Assay [3] addresses T3, Replicative DNA helicase DnaB (Mycobacterium tuberculosis, UniProt P9WMR3).
T3 sequence (P9WMR3 whole entry): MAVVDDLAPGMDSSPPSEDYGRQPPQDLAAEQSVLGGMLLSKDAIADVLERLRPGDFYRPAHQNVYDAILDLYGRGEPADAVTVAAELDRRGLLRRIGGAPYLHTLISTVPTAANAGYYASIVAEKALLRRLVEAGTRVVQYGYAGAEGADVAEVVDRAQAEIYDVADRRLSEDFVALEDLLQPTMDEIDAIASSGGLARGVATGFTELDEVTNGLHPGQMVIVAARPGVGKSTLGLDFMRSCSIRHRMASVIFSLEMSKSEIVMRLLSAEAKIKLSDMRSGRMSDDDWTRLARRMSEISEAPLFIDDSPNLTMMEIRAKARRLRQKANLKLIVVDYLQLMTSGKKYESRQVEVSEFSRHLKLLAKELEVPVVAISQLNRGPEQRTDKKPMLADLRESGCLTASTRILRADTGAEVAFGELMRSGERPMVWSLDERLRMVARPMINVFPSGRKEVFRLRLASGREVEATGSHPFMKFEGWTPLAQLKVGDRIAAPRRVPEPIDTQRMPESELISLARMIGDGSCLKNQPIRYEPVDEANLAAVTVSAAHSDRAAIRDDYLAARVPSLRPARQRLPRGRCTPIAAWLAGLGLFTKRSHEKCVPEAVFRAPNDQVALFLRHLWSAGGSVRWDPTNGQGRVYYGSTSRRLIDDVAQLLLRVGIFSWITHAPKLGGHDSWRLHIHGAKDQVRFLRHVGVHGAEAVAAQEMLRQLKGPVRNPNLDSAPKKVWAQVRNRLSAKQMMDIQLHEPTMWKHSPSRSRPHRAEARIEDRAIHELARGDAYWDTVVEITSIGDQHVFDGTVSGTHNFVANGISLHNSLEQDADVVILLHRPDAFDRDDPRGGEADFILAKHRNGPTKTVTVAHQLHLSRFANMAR
The experiment in a line: DnaB intein splicing inhibitors, dose response, biochemical, cell-free fluorescence (AID 449749). In kind it is functional.

Assay [4] concerns the target Nuclear receptor subfamily 0 group B member 1 (Homo sapiens, UniProt P51843). In kind it is functional, cell-based.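 Note: HEK293T cells transfected with SF-1 and DAX-1 plus StAR promoter luciferase reporter.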
Another assay concerns HEK293. The experiment in a line: EBV LMP1 TES2 canonical NF-kB signalling blockers – cell-based, HEK293, luciferase, cherry-pick, dose response (AID 588343). It is filed as functional. The conditions noted are these: Homo sapiens.
Assay [5] has as its target T4, Sentrin-specific protease 6 (Homo sapiens, UniProt Q9GZR1).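 Note: Luminescence-based dose-response confirmatory assay of SENP6 inhibition, following up an ultra-high-throughput screen.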
T4 sequence (Q9GZR1 whole entry): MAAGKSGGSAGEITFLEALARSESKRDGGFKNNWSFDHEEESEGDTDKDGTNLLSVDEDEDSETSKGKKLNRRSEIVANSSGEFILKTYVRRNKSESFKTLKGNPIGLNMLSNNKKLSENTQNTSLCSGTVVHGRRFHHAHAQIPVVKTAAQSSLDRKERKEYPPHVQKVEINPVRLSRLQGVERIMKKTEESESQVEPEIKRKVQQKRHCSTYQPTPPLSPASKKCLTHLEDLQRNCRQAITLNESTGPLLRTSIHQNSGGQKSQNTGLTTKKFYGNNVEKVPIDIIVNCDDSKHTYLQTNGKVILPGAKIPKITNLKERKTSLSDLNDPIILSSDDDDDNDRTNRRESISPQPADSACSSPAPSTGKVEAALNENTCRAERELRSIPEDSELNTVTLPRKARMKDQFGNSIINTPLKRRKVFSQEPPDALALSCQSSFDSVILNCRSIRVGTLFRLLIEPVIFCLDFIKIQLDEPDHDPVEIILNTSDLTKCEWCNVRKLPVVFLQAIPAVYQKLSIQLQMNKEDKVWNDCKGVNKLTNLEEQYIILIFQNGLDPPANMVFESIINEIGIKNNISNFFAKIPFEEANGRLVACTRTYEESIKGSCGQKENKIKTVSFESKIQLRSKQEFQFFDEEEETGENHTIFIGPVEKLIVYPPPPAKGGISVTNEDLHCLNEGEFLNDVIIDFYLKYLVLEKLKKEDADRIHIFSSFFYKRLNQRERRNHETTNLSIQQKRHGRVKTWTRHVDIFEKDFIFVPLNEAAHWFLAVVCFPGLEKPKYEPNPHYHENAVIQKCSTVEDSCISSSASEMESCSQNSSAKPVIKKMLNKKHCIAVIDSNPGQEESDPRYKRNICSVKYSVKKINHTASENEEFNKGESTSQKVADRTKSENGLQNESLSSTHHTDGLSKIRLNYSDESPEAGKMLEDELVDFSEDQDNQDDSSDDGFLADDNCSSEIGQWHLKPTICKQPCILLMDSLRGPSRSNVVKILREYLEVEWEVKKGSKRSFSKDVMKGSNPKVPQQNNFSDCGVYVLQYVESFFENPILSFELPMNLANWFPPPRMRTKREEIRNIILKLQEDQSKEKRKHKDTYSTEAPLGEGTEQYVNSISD
In kind it is functional.

Assay [6] deals with T5, Sentrin-specific protease 7 (Homo sapiens, UniProt Q9BQF6).
T5 sequence (Q9BQF6 whole entry): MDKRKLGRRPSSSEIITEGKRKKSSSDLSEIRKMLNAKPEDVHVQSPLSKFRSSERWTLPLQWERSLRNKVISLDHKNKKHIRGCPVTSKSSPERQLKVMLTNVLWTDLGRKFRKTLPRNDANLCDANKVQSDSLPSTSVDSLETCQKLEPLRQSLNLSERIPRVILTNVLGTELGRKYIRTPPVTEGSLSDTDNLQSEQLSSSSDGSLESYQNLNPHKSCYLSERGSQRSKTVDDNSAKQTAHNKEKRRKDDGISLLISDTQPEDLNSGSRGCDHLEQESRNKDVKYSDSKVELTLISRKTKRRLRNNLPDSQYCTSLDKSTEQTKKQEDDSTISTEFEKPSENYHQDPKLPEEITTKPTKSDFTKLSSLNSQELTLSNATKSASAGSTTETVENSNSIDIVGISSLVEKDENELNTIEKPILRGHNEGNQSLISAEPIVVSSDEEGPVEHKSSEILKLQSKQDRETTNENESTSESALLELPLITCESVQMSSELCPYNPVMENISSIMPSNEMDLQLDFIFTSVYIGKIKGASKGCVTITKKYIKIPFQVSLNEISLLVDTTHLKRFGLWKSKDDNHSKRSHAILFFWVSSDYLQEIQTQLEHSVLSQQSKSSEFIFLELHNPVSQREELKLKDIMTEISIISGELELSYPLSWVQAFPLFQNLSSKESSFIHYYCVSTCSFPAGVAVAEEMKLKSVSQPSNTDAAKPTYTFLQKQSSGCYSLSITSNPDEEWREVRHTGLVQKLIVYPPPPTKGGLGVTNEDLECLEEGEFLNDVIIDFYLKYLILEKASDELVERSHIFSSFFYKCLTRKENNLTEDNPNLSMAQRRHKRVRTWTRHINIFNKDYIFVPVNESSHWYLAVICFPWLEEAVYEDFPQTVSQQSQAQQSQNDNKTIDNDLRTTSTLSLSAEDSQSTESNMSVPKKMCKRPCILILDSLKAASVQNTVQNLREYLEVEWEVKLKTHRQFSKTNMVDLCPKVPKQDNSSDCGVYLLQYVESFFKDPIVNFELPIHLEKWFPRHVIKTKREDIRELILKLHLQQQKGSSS
It is filed as functional.

Assay [7] addresses T6, Sentrin-specific protease 8 (Homo sapiens, UniProt Q96LD8).
T6 sequence (Q96LD8 whole entry): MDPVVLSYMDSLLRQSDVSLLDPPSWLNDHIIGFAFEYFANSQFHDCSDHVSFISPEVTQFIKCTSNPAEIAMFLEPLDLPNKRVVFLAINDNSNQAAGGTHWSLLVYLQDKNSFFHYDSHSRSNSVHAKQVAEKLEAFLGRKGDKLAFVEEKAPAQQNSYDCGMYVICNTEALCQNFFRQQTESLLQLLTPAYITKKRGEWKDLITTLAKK
In kind it is functional.

The target in another assay is T7, Caspase-3 (Homo sapiens, UniProt P42574).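 Note: Dose-response selectivity test against caspase-3 for candidate inhibitors of sentrin-specific proteases (SENPs).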
T7 sequence (P42574 whole entry): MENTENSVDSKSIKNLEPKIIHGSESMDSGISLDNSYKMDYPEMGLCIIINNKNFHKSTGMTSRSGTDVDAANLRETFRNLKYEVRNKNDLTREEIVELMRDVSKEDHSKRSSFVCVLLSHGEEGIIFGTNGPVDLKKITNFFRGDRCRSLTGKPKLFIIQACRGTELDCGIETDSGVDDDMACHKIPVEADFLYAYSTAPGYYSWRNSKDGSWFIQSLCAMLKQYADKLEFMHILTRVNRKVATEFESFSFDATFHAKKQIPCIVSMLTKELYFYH
In kind it is functional.

The nature of another assay: cells. In kind it is functional, cell-based.
Assay [8] has as its target Glyceraldehyde-3-phosphate dehydrogenase (Homo sapiens, UniProt P04406).
For assay [9], the target named is Alkaline phosphatase, placental type (Homo sapiens, UniProt P05187). The experiment in a line: human placental alkaline phosphatase inhibition – biochemical, luminescence, confirmation (AID 1512). In kind it is functional.
Chain of Alkaline phosphatase, placental type (P05187 whole entry): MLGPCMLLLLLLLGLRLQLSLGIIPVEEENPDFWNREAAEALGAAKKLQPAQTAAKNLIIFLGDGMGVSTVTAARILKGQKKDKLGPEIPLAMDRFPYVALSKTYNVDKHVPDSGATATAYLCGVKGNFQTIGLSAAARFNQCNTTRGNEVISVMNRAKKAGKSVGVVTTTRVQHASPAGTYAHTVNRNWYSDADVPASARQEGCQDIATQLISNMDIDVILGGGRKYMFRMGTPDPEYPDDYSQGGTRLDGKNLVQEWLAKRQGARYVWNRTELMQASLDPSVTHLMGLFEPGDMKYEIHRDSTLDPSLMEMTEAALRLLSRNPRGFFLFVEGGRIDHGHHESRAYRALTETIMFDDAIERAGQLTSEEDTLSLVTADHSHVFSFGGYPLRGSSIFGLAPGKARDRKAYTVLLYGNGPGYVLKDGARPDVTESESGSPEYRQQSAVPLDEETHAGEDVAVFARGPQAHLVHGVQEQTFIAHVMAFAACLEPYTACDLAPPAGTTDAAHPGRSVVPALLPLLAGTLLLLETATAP

Chain of Glyceraldehyde-3-phosphate dehydrogenase (P04406 whole entry): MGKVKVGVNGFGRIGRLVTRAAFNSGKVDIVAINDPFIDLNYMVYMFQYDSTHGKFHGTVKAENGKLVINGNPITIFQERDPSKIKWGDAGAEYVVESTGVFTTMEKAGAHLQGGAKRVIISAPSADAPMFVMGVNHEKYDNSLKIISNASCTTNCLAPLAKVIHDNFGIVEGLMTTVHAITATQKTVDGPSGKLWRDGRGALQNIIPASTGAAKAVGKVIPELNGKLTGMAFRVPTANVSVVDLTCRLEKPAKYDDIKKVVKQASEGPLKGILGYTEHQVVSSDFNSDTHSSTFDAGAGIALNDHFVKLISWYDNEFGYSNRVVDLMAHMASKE
Chain of Nuclear receptor subfamily 0 group B member 1 (P51843 whole entry): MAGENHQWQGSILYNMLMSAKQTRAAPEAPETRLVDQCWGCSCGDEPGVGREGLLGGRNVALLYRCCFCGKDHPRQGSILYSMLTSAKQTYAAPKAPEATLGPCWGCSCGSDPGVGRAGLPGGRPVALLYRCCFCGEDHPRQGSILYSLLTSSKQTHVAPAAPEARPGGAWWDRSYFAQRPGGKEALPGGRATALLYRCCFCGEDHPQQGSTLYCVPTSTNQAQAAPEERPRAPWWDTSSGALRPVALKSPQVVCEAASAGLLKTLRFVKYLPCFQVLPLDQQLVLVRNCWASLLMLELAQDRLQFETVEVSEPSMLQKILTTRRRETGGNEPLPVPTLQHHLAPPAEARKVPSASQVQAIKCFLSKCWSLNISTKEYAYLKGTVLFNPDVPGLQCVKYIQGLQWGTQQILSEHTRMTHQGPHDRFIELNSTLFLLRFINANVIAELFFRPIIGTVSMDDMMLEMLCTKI
Chain of G-protein coupled receptor 55 (Q9Y2T6 whole entry): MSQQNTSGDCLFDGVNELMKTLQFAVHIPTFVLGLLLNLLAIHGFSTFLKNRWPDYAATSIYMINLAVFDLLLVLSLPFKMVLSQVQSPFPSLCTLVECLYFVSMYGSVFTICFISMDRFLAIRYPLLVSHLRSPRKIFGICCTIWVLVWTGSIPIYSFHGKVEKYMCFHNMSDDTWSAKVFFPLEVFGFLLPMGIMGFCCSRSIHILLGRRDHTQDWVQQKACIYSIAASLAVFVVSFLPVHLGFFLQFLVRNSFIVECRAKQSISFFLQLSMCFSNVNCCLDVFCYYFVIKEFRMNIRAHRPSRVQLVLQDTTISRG

`Clc1ncnc2scc(C3COc4ccccc4O3)c12` (stereo not drawn): the IC50 in assay [1] is 3.38 µM (active). Further, the EC50 is 3.97 µM (active) at Protein RecA and 21.4 µM (active) in assay [2]. In addition, the AC50 in [3] was 7.16 µM (active).
With `Cc1ccn2c(c1)nc(=S)n2C(=O)c1ccccc1`, the 50% inhibitory concentration (IC50) in assay [4] was > 0.0926 µM (active); in [5], 72.3 µM (active); in assay [6], 4.09 µM (active); in assay [7] it was 94.9 µM (active); at Caspase-3, 46.5 µM (active); in “cells”, > 67.5 µM (inactive). Also, the AC50 with HEK293 was 0.814 µM (active).
On to `O=C(c1cc(-c2ccc(Cl)cc2Cl)n[nH]1)N1CCCCCC1`, for which the IC50 is > 100 µM (not active) in assay [8] and > 100 µM (inactive) in [9].

One may read the IC50 as the concentration that inhibits the measured activity by half. What is called EC50 is the concentration giving half of the maximal effect. For orientation: AC50 means the concentration giving half of the maximal activity seen.

Values taken from ChEMBL document CHEMBL1201862, “PubChem BioAssay data set” (2004).
